Source: PubChem BioAssay AID652053 (Broad Institute, 2013)

The molecules below were run on Huh7 psiCHECK-miR122 Renilla luciferase reporter, 48 h (assay: suppression of miR-122 activity, Renilla luciferase sensor – cell-based, Huh7 psiCHECK-miR122, cherry-pick, dose response (AID 652053)).

| SMILES | AC40 [µM] |
| --- | --- |
| Cc1ccc(C(=O)NCc2ccco2)cc1S(=O)(=O)Nc1cccc(C)c1C | 6.29 |
| Cc1ccc(S(=O)(=O)N(C)C[C@H]2Oc3ccc(NC(=O)CCC(F)(F)F)cc3C(=O)N([C@@H](C)CO)C[C@H]2C)cc1 | 12.1 |
| S=C(NCc1cccs1)Nc1cccc(Cl)c1 | 3.93 |
| C[C@H](CO)N1C[C@H](C)[C@@H](CN(C)Cc2ccc3c(c2)OCO3)Oc2c(NS(=O)(=O)c3ccc(Cl)cc3)cccc2C1=O | 24.2 |
| CC(C)(C)c1ccc(S(=O)(=O)Nc2ccc(C(O)(C(F)(F)F)C(F)(F)F)cc2)cc1 | 5.39 |
| COCC#Cc1ccc2c(c1)O[C@H](CN(C)Cc1ccc3c(c1)OCO3)[C@@H](C)CN([C@@H](C)CO)S2(=O)=O | 13.8 |
| CC(C)C(=O)Nc1ccc2c(c1)C(=O)N(C)[C@H]1CC[C@H](CC(=O)NCc3cccc(F)c3)O[C@H]1CO2 | 17.7 |
| O=C(CCc1ccc(S(=O)(=O)NC2CCCCC2)cc1)NCc1ccccc1 | 4.38 |
| CCN1C(=O)c2cccc3c(S(=O)(=O)N(C(=O)c4cccnc4)c4ccc(OC)cc4)ccc1c23 | 1.21 |
| COc1ccc(NS(=O)(=O)c2ccc(N3CCOCC3)c(NC(=O)c3ccc(F)cc3)c2)cc1 | 7.87 |
| CC(=O)Nc1ccc(S(=O)(=O)Nc2cccc(-c3nc4ccccc4o3)c2)cc1 | 6.93 |
| CC(C)C(=O)NC(=S)Nc1ccc(S(=O)(=O)Nc2ccccc2)cc1 | 0.461 |
| Cc1cccc(NS(=O)(=O)c2cc3c(cc2C)NC(=O)CO3)c1 | 2.36 |
| Cc1cc(C)c(S(=O)(=O)NC(C)C)c(C)c1-n1cnnn1 | 1.3 |
| COc1ccccc1C(=O)Nc1ccc2c(c1)C(=O)N(C)[C@H]1CC[C@H](CC(=O)NCc3ccc(Cl)c(Cl)c3)O[C@H]1CO2 | 0.333 |
| CCOc1ccc(Cl)cc1S(=O)(=O)NC1CCCC1 | 2.27 |
| CC(=O)N1CCOc2ccc(S(=O)(=O)NCCc3ccc(Cl)cc3)cc21 | 5.14 |
| C[C@@H]1CN([C@@H](C)CO)C(=O)Cc2cc(N(C)C)ccc2O[C@@H]1CN(C)Cc1ccc(C(=O)Nc2ccccc2N)cc1 | 10 |
| C[C@H](CO)N1C[C@H](C)[C@@H](CN(C)Cc2ccccc2)Oc2c(NC(=O)C3CC3)cccc2C1=O | 6.79 |
| CC1CCCCC1NC(=S)Nc1ccc(SC(F)F)cc1 (stereo not given) | 4.15 |
| CCCCNS(=O)(=O)c1ccc2nc(-c3cccnc3)cc(C(=O)NC(C)CC)c2c1 (stereo not given) | 0.387 |
| Cc1cc(F)ccc1C(O)c1ncc(-c2ccccc2F)[nH]1 (stereo not given) | 5.29 |
| FC(F)Sc1ccc(NC(=S)NC2CCCCC2)cc1 | 4.16 |
| COc1ccccc1NS(=O)(=O)c1cc(Cl)ccc1OC | 15.9 |
| COc1ccc(S(=O)(=O)N2CC[C@@H]3[C@@H](CO)N(C)c4ccc(-c5ccc(F)cc5)cc4[C@@H]32)cc1 | 6.93 |

| SMILES | AC40 [µM] |
| --- | --- |
| COc1ccc(NS(=O)(=O)c2ccc(Cl)c(N)c2)cc1Br | 3.88 |
| Cc1cccc(NS(=O)(=O)c2ccc(C3CCCCC3)cc2)c1 | 13.2 |
| C[C@@H]1CCCCO[C@@H](CN(C)CC2CCCCC2)[C@@H](C)CN([C@H](C)CO)C(=O)c2cc(NC(=O)CCC(F)(F)F)ccc2O1 | 9.73 |
| COc1cc(C)c(S(=O)(=O)Nc2ccccc2F)cc1C | 3.14 |
| O=C(Cc1ccccc1)N1C[C@@H]2[C@H](c3ccccc31)[C@H](CO)N2C(=O)Nc1ccc(F)cc1 | 4.71 |
| COc1ccc(S(=O)(=O)N(C)C[C@H]2Oc3ccc(NC(=O)Nc4ccc(F)cc4)cc3C(=O)N([C@H](C)CO)C[C@H]2C)cc1 | 0.631 |
| Cc1cc(S(=O)(=O)Nc2cccc(O)c2)c(C)s1 | 31 |
| O=C1C(Oc2ccccc2)C(c2ccc3c(c2)OCO3)N1CCc1ccc(F)cc1 (stereo not given) | 8.01 |
| COc1cc(NS(=O)(=O)c2ccc(Br)s2)cc(OC)c1 | 5.31 |
| Cc1cc(C(=O)Nc2cccc3c2O[C@@H](CN(C)Cc2ccc(C(F)(F)F)cc2)[C@H](C)CN([C@H](C)CO)C3=O)n(C)n1 | 3.62 |
| O=C(NCCCN1CCCC1=O)c1cccc(S(=O)(=O)Nc2ccc(Br)cc2)c1 | 7.56 |
| C[C@H]1CN([C@@H](C)CO)C(=O)c2cccc(NC(=O)Nc3ccc(C(F)(F)F)cc3)c2O[C@@H]1CN(C)CC1CCCCC1 | 3.47 |
| COc1ccc(CN(C)C[C@H]2Oc3c(NC(=O)NC4CCCCC4)cccc3C(=O)N([C@H](C)CO)C[C@@H]2C)cc1 | 5.06 |
| O=C(N/N=C/c1cccs1)C(O)c1ccccc1 (stereo not given) | 15.2 |
| CCc1c(C(=O)NC2CCCCC2)[nH]c(C)c1C(C)=O | 4.84 |
| O=C(NCc1ccco1)c1ccc(Cl)c(S(=O)(=O)Nc2ccccc2)c1 | 4.59 |
| COc1ccc(C)cc1S(=O)(=O)Nc1cccc(SC)c1 | 0.582 |
| O=S(=O)(NCCC1=CCCCC1)c1ccccc1Cl | 3.9 |
| COc1ccc(NC(=O)Nc2ccc3c(c2)C(=O)N([C@H](C)CO)C[C@@H](C)[C@@H](CN(C)S(=O)(=O)c2ccc(OC)cc2)O3)cc1 | 1.21 |
| C[C@H](CO)N1C[C@H](C)[C@H](CN(C)Cc2ccc(C(=O)Nc3ccccc3N)cc2)Oc2ccc(NS(=O)(=O)c3cn(C)cn3)cc2CC1=O | 27 |
| Cc1ccc(C(C)C)cc1S(=O)(=O)NC1CC(C)(C)NC(C)(C)C1 | 8.18 |
| CN(C)S(=O)(=O)c1ccc(NS(=O)(=O)/C=C/c2ccccc2)cc1 | 2.27 |
| C[C@H](CO)N1C[C@H](C)[C@H](CN(C)CC2CCCCC2)Oc2c(NC(=O)c3cnccn3)cccc2C1=O | 1.12 |
| COc1ccccc1CN(C)C(=O)c1cccc(S(=O)(=O)N2CCCc3ccccc32)c1 | 4.57 |
| Cc1ccc(C(=O)Nc2ccc(Cl)cc2C(=O)c2ccccc2)cc1 | 18.6 |
